From publication PMC11879040, “Advancing systemic toxicity risk assessment: Evaluation of a NAM-based toolbox approach” (Toxicological Sciences, 2024) come the findings set out here.

One assay deals with HepG2 cells. The experiment in a line: Cell stress panel (CSP), 24 h, 8 concentrations, BIFROST global PoD. Format: cell-based. The protocol: Compounds were tested using the previously developed cell stress panel ([Hatherell et al. 2020]) and the expanded biomarker panel outlined in Middleton et al. HepG2 cells were treated with all compounds for 24 h across 8 concentrations prior to biomarker analysis. The same plate layout and number of replicates (3 biological and 2 technical) were used as previously for each assay within the panel.

The target in assay [1] is Tyrosine-protein kinase Lck, LCK (h) (Homo sapiens, UniProt P06239). The experiment in a line: IPP LCK enzymatic activity. The format is biochemical. The settings on record: IPP screening at 10 uM; control staurosporine.
Sequence of Tyrosine-protein kinase Lck, LCK (h) (P06239 whole entry): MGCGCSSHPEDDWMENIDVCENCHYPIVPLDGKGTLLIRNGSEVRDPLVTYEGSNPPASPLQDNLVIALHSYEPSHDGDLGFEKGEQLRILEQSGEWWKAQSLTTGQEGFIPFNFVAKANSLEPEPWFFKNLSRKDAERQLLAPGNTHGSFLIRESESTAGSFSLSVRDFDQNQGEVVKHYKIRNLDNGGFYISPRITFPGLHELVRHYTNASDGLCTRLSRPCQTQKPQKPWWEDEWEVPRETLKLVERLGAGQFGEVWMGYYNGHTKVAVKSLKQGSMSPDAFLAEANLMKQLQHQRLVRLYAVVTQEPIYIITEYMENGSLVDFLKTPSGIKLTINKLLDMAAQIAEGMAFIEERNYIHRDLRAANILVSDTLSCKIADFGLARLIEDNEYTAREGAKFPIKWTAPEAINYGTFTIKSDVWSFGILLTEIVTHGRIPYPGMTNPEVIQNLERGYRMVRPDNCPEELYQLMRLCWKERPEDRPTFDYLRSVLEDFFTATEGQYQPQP
Assay [2] has as its target Dopamine receptor D1, DRD1 (h) (Homo sapiens, UniProt P21728). The settings on record: control SCH 23390.
For assay [3], the target named is T1, Cholecystokinin receptor type A, CCKAR (h) (Homo sapiens, UniProt P32238).
T1 sequence (P32238 1-428): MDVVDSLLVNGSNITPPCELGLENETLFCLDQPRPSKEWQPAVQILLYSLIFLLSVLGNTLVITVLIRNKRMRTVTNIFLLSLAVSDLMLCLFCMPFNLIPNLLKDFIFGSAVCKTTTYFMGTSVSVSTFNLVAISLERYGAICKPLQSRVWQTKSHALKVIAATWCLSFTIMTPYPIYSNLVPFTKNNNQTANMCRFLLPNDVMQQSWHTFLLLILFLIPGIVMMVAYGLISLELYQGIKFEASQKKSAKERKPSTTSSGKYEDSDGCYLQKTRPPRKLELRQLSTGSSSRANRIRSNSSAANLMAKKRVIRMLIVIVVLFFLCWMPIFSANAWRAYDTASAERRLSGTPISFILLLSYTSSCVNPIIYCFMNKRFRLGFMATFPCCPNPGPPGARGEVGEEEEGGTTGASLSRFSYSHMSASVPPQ
The experiment in a line: IPP CCKAR binding (agonist radioligand). The settings on record: control CCK-8s.

Assay [4] deals with 63 targets with known safety liabilities. The experiment in a line: In vitro pharmacological profiling (IPP) panel, screening at 10 or 100 µM and dose response, minimum IC50/AC50. Format: biochemical. The settings on record: lowest AC50 across IPP panel (systemic targets); cell_type -; read-out: ipp_lowest_ac50_systemic PoD.
Assay [5] deals with T2, Muscarinic acetylcholine receptor M1, CHRM1 (h) (Homo sapiens, UniProt P11229).
T2 construct: purchased Eurofins Cerep (SafetyScreen44-based IPP panel)
T2 sequence (P11229 1-460): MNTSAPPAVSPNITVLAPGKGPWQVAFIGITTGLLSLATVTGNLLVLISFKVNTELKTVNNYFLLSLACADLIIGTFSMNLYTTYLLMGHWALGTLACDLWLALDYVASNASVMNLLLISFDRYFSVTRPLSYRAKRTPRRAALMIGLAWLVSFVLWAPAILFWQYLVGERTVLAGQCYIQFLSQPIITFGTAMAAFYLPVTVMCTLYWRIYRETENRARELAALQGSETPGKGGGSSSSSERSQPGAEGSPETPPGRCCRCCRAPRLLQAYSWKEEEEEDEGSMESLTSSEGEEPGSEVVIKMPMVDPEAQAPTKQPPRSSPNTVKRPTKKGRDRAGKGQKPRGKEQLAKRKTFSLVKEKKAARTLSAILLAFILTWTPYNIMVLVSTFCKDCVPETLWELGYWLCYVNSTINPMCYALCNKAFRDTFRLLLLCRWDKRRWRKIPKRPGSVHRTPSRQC
The format is binding. The settings on record: control pirenzepine.

The target in assay [6] is T3, Beta-2 adrenergic receptor, ADRB2 (h) (Homo sapiens, UniProt P07550).
T3 construct: purchased Eurofins Cerep (SafetyScreen44-based IPP panel)
The experiment in a line: IPP ADRB2 binding (antagonist radioligand). The settings on record: control ICI 118551.

Assay [7] addresses Sodium-dependent noradrenaline transporter, SLC6A2 (h) (Homo sapiens, UniProt P23975). The settings on record: ligand/control protriptyline.
The target in assay [8] is T4, Estrogen receptor, ER1 (h) (Homo sapiens, UniProt P03372).
T4 construct: purchased Eurofins Cerep (SafetyScreen44-based IPP panel)
T4 sequence (P03372 1-595): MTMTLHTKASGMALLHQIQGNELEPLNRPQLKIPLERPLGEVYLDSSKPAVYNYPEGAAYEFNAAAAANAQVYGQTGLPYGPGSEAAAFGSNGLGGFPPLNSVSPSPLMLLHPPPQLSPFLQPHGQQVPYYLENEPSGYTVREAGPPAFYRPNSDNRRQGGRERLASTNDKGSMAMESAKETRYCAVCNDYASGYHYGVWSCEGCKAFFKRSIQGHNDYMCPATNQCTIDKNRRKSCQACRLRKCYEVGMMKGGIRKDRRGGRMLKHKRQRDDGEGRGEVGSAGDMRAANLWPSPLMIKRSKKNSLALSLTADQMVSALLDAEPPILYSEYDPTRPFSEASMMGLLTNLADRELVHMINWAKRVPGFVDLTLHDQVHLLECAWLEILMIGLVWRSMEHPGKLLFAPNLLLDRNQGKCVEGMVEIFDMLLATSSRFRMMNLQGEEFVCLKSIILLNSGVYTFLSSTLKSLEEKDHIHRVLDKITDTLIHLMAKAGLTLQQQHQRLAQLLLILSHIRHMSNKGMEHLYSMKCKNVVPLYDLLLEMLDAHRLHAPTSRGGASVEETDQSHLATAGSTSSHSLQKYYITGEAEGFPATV
The experiment in a line: IPP ER1 coactivator recruitment (antagonist). Format: biochemical. The settings on record: estriol.

The target in assay [9] is Histamine H2 receptor, HRH2 (h) (Homo sapiens, UniProt P25021). The experiment in a line: IPP HRH2 binding (antagonist radioligand). The settings on record: control cimetidine.
Sequence of Histamine H2 receptor, HRH2 (h) (P25021 whole entry): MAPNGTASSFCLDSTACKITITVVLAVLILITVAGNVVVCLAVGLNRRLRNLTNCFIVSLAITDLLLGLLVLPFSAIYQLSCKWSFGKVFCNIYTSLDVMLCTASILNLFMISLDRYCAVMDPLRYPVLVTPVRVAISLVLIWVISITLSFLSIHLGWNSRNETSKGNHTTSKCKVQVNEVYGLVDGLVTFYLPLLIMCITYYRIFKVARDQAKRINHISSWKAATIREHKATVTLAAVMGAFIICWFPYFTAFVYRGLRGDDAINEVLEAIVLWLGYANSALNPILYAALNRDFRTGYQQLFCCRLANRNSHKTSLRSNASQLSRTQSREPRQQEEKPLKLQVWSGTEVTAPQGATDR
Assay [10] deals with T5, Angiotensin II receptor Type-1, AGTR1 (h) (Homo sapiens, UniProt P30556).
T5 construct: purchased Eurofins Cerep (SafetyScreen44-based IPP panel)
T5 sequence (P30556 1-359): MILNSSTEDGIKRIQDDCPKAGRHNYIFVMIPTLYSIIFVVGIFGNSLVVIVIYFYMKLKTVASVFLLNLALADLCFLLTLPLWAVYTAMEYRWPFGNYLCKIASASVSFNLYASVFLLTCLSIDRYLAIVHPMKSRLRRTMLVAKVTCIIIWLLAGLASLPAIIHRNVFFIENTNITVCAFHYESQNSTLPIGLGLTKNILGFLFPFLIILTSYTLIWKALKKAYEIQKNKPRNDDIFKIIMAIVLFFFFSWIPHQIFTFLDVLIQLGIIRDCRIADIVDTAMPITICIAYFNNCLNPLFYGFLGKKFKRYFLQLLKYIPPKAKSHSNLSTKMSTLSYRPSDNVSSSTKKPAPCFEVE
The experiment in a line: IPP AGTR1 binding. The settings on record: ligand/control Saralasin.

Where two headings read alike, the source gives them in different places.

Sequence of Dopamine receptor D1, DRD1 (h) (P21728 whole entry): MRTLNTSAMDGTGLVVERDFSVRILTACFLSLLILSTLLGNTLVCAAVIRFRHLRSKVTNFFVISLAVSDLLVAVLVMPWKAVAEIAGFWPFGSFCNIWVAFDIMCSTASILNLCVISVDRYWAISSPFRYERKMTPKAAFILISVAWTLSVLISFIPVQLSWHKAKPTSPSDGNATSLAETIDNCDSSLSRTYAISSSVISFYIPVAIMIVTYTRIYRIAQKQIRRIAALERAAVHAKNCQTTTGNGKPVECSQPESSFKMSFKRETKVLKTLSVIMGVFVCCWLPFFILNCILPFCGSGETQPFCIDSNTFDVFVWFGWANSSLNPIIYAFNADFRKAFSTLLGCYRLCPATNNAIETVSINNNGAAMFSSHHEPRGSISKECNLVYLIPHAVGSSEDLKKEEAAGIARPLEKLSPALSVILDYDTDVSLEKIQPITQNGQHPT
Sequence of Sodium-dependent noradrenaline transporter, SLC6A2 (h) (P23975 whole entry): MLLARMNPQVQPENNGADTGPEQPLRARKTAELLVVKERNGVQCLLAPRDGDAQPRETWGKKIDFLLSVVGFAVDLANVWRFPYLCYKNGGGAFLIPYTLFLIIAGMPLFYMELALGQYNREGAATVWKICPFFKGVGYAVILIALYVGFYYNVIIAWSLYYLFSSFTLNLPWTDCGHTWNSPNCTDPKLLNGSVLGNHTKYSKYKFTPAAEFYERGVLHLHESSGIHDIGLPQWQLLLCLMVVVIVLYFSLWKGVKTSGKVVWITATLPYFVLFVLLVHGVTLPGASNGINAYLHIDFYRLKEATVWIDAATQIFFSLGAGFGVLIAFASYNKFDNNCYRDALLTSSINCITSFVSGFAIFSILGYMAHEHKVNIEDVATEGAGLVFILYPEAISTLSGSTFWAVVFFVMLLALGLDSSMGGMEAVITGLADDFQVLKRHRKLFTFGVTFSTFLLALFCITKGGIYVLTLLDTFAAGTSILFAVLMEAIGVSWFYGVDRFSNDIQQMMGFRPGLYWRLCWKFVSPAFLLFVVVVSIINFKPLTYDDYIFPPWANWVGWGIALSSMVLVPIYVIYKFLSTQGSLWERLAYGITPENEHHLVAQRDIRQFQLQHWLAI

For `CCOP(=S)(OCC)Oc1nc(Cl)c(Cl)cc1Cl` [Chlorpyrifos, O,O-Diethyl O-(3,5,6-trichloropyridin-2-yl) phosphorothioate], the “pod_cell_stress PoD” value in the assay with HepG2 cells (HepG2, cell stress panel PoD) is 0.578 µM. Moreover, the Enzymatic activity in assay [1] is on record as -7.4%. The Specific binding is 1.9% in assay [2] (IPP screening at 10 uM); 55.2% in assay [3] (IPP screening at 10 uM); -5.6% in [5] (IPP screening at 10 uM); -2.4% in assay [6] (IPP screening at 10 uM); -62.6% in assay [9] (IPP screening at 10 uM). Further, in assay [4], the AC50 was determined as 1850 nM. For the same molecule, the figures for the “IPP screening %, Specific binding” value in assay [7] (10 uM) and in [10] (10 uM) were 63.4% and 0.5%, respectively. In addition, the “IPP screening %, Coactivator recruitment” value in [8] (10 uM) was found to be 9.0%.
Take `CC(C)(C)c1ccc(CCOc2ncnc3ccccc23)cc1` [Fenazaquin, 4-[2-(4-tert-Butylphenyl)ethoxy]quinazoline]: in the assay with HepG2 cells, the “Bioactivity Observations: cell stress panel” value is given as “Mechanism of action is insect-specific. Cell stress panel PoD is extrapolated beyond lowest concentration for leading biomarkers which suggests the concentration range tested was not low enough”. For the same molecule, in the assay on HepG2 cells (HepG2, cell stress panel PoD), the “pod_cell_stress PoD” value amounted to 0.0001306 µM. In addition, the Enzymatic activity in [1] is given as 3.3%. The Specific binding is listed as 4.5% in assay [2] (IPP screening at 10 uM); 60.9% in assay [3] (IPP screening at 10 uM); 12.0% in [5] (IPP screening at 10 uM); -1.2% in assay [6] (IPP screening at 10 uM); -38.6% in [9] (IPP screening at 10 uM). The AC50 in [4] came to 2860 nM. The figures for the “IPP screening %, Specific binding” value in assay [7] (10 uM) and in assay [10] (10 uM) were 69.3% and 8.6%, respectively. Besides, in assay [8] (10 uM), the “IPP screening %, Coactivator recruitment” value worked out at 4.0%.
On to `CC1(C)O[C@@H]2[C@@H](CO[C@@]3(COS(N)(=O)=O)OC(C)(C)O[C@@H]23)O1` [Topiramate, [(3aS,5aR,8aR,8bS)-2,2,7,7-Tetramethyltetrahydro-2H,3aH,7H-bis[1,3]dioxolo[4,5-b:4',5'-d]pyran-3a-yl]methyl sulfamate (non-preferred name)], for which the “pod_cell_stress PoD” value in the assay on HepG2 cells (HepG2, cell stress panel PoD) was 140.54 µM. Further, the Specific binding in assay [2] (IPP screening at 100 uM) was -2.4%; in [3] (IPP screening at 100 uM), 9.6%; in [5] (IPP screening at 100 uM), 12.2%; in [6] (IPP screening at 100 uM), 3.5%; in assay [9] (IPP screening at 100 uM), -13.7%. The AC50 in assay [4] came out at 160 nM. The “IPP screening %, Specific binding” value in assay [7] (100 uM) is given as 5.7%; in [10] (100 uM), -7.3%. The “IPP screening %, Coactivator recruitment” value in assay [8] (100 uM, * denotes assay interference (2-Amino-6-chloro-4-nitrophenol, HC Red 3)) is on record as -1.0%.
Turning to “(4S,4aR,5S,5aR,6S,12aS)-4-(Dimethylamino)-3,5,6,10,12,12a-hexahydroxy-6-methyl-1,11-dioxo-1,4,4a,5,5a,6,11,12a-octahydrotetracene-2-carboxamide--hydrogen chloride (1/1) [Oxytetracycline hydrochloride]”, in assay [1], the Enzymatic activity is listed as -1.2%. In addition, the Specific binding in [2] (IPP screening at 10 uM) was 1.4%; in [3] (IPP screening at 10 uM), 7.8%; in assay [6] (IPP screening at 10 uM), 0.6%; in assay [9] (IPP screening at 10 uM), -18.3%. Moreover, the “IPP screening %, Specific binding” value is -8.5% in assay [7] (10 uM) and -8.1% in [10] (10 uM).
Consider “mixture of 2- and 3-tert-butyl-4-methoxyphenol [Butylated Hydroxyanisole]”, for which the “pod_cell_stress PoD” value in the assay on HepG2 cells is on record as 32.7666 µM. Also, in assay [1], the Enzymatic activity turned out to be 14.6%. Besides, the Specific binding is reported as 3.5% in [2] (IPP screening at 10 uM); 4.2% in [3] (IPP screening at 10 uM); 8.4% in [5] (IPP screening at 10 uM); 0.4% in assay [6] (IPP screening at 10 uM); -2.5% in assay [9] (IPP screening at 10 uM). The “IPP screening %, Specific binding” value was 13.9% in [7] (10 uM) and -1.0% in assay [10] (10 uM).
